Laboratory results as given in patent US11584756B2, “Heterocyclic compounds as BET inhibitors” (NUVATION BIO INC., priority 2019, dated 2023).
Read-outs that look alike come from different tables or passages of the source.

How the values were obtained:
BRD4-1 = BRD4-1 (Homo sapiens (Human), UniProt O60885); assay: Bromodomain and Extraterminal Domain (BET) binding assay, BRD4-1; conditions: histone H4 peptide (1-21) K5/8/12/16Ac-biotin ligand; 20 nM protein, 20 nM ligand
Description: (§1) The bromodomain binding assays were performed by Reaction Biology Corp., Malvern, Pa., USA (www.reactionbiology.com). The BET binding assays were conducted in 384 well microplates in assay buffer (50 mM HEPES-HCl, pH 7.5, 100 mM NaCl, 1 mg/ml BSA, 0.05% CHAPS, and 0.5% DMSO) with compounds added as DMSO stocks at a single concentration or with 10-point dose response titrations. BET protein or assay buffer were delivered to the appropriate wells of the microplate. Test compound was then delivered by acoustic technology via a Labcyte Echo550 liquid handler. The microplate was centrifuged for 5 min and pre-incubated for 30 min at RT with gentle shaking. The ligand (histone H4 peptide (1-21) K5/8/12/16Ac-biotin) was delivered and the microplate was again centrifuged for 5 min and allowed to incubate for 30 min at RT with gentle shaking. Donor beads were then added in the absence of light and the microplate was centrifuged and gently shaken. After 5 min, acceptor beads were added in the absence of light and the microplate was centrifuged and gently shaken in the dark for 60 min. The microplate was read using a Perkin Elmer EnSpire Alpha plate reader (λ Ex/λ Em=680/520-620 nm). Percent inhibition was calculated relative to positive and negative controls on a per plate basis. For titration experiments, IC50 values were determined by fitting the percent inhibition versus compound concentration.

[1] = test system: MV-4-11 human acute myeloid leukemia cell line; assay: Cell viability assay in MV-4-11 cells (Cell Titer-Glo); format: cell-based; conditions: MV4-11, 72 hrs incubation
Description: The effects of test compounds were studied in a cell viability assay in the MV-4-11 human acute myeloid leukemia cell line. The cells were harvested during the logarithmic growth period and counted. Cells were seeded at a count of 15000 cells per well/100 μl. After seeding, cells were incubated at 37° C. 5% CO2 for 1 hr. Cells were treated with test compounds at 8 concentrations within a desired concentration range (e.g. 5 nM-10 μM) for generation of dose response curves by preparing serial dilutions of the test compound in DMSO which were further diluted with culture medium and then added to each well. The plate was further incubated for another 72 hrs in a humidified incubator at 37° C. and 5% CO2. The assay was terminated by addition of Cell Titer-Glo reagent (Promega, Madison, Wis.) at ¼ the volume of total medium per well. Contents were mixed, the plate was incubated for 10 min at room temperature and luminescence was measured. Cell viability data were plotted using GraphPad Prism (GraphPad Software, Inc., San Diego, Calif.). In addition, a nonlinear regression model with a sigmoidal dose response and variable slope within GraphPad Prism was used to calculate the IC50 value of individual test compounds.

[2] = test system: IEC-6 rat intestinal epithelial cell line; assay: Cell viability assay in IEC-6 cells (resazurin), potential toxicity to non-cancerous cells; format: cell-based
Description: The effects of test compounds were also studied in the IEC-6 rat intestinal epithelial cell line to assess potential toxicity to non-cancerous cells. The cells were harvested during the logarithmic growth period and counted. In Protocol A, cells were seeded at a count of 3000 cells per well/100 μl in a 96-well plate. After seeding, cells were incubated at 37° C. 5% CO2 for 24 hr. Cells were treated with test compounds at 8 concentrations within a desired concentration range (e.g. 5 nM-10 μM) for generation of dose response curves by preparing serial dilutions of the test compound in DMSO which were further diluted with culture medium and then added to each well. The plate was further incubated for another 96 hrs in humidified incubator at 37° C. and 5% CO2. The assay was terminated by addition of resazurin (#R7017, Sigma). The plate was incubated for 4 hr at 37° C. 5% CO2 and fluorescence was measured using excitation and emission wavelengths of 535 and 590 nm, respectively. Cell viability data were plotted using GraphPad Prism (GraphPad Software, Inc., San Diego, Calif.). In addition, a nonlinear regression model with a sigmoidal dose response and variable slope within GraphPad Prism was used to calculate the IC50 value of individual test compounds. Protocol B was the same as Protocol A except that cells were seeded at a count of 4000 cells per well/100 μl in a 96-well plate, and the incubation with test compound was for 48 hrs instead of 96 hrs.

BRD4-2 = BRD4-2 (Homo sapiens (Human), UniProt O60885); assay: Bromodomain and Extraterminal Domain (BET) binding assay, BRD4-2; conditions: histone H4 peptide (1-21) K5/8/12/16Ac-biotin ligand; 130 nM protein, 70 nM ligand
Description: as §1

[3] = Protocol A: 3000 cells per well, 96 hrs incubation with test compound, read-out: Protocol A IC50 (μM), cell viability in IEC-6 cells
[4] = Protocol B: 4000 cells per well, 48 hrs incubation with test compound, read-out: Protocol B IC50 (μM), cell viability in IEC-6 cells

| SMILES | IC50 (BRD4-1) [nM] | IC50 [1] [µM] | IC50 [2, 3] [µM] | IC50 [2, 4] [µM] | IC50 (BRD4-2) [nM] |
| --- | --- | --- | --- | --- | --- |
| CCNC(=O)c1cc2c(-c3cc(C(C)(C)O)ccc3Oc3c(C)cc(F)cc3C)cn(C)c(=O)c2s1 [Compound 1, N-ethyl-4-(2-(4-fluoro-2,6-dimethylphenoxy)-5-(2-hydroxypropan-2-yl)phenyl)-6-methyl-7-oxo-6,7-dihydrothieno[2,3-c]pyridine-2-carboxamide] | 10100 | 0.131 | 0.266 | 4.91 | 2 |
| CCNC(=O)c1cc2c(-c3cc(C(C)(C)O)ccc3Oc3ccc(Cl)cc3Cl)cn(C)c(=O)c2s1 [Compound 2, 4-(2-(2,4-dichlorophenoxy)-5-(2-hydroxypropan-2-yl)phenyl)-N-ethyl-6-methyl-7-oxo-6,7-dihydrothieno[2,3-c]pyridine-2-carboxamide] | – | 0.111 | 0.061 | – | 1 |
| CCNC(=O)c1cc2c(-c3cc(C(C)(C)O)ccc3Oc3ccc(F)cc3F)cn(C)c(=O)c2s1 [Compound 3, 4-(2-(2,4-difluorophenoxy)-5-(2-hydroxypropan-2-yl)phenyl)-N-ethyl-6-methyl-7-oxo-6,7-dihydrothieno[2,3-c]pyridine-2-carboxamide] | 2050 | 0.074 | 0.089 | – | < 2 |
| CCS(=O)(=O)Nc1ccc(Oc2c(C)cccc2C)c(-c2cn(C)c(=O)c3sc(-c4nnc(C)o4)cc23)c1 [Compound 4, N-(4-(2,6-dimethylphenoxy)-3-(6-methyl-2-(5-methyl-1,3,4-oxadiazol-2-yl)-7-oxo-6,7-dihydrothieno[2,3-c]pyridin-4-yl)phenyl)ethanesulfonamide] | 197 | 0.115 | 0.048 | 0.283 | 6 |
| Cc1noc(-c2cc3c(-c4cc(C(C)(C)O)ccc4Oc4ccc(F)cc4F)cn(C)c(=O)c3s2)n1 [Compound 8, 4-(2-(2,4-difluorophenoxy)-5-(2-hydroxypropan-2-yl)phenyl)-6-methyl-2-(3-methyl-1,2,4-oxadiazol-5-yl)thieno[2,3-c]pyridin-7(6H)-one] | 94 | 0.379 | 0.156 | 0.521 | 74 |
| CCS(=O)(=O)Nc1ccc(Oc2c(C)cc(F)cc2C)c(-c2cn(C)c(=O)c3sc(-c4nnc(C)o4)cc23)c1 [Compound 10, N-(4-(4-fluoro-2,6-dimethylphenoxy)-3-(6-methyl-2-(5-methyl-1,3,4-oxadiazol-2-yl)-7-oxo-6,7-dihydrothieno[2,3-c]pyridin-4-yl)phenyl)ethanesulfonamide] | 111 | 0.126 | – | 0.78 | 3.4 |
| Cc1nnc(-c2cc3c(-c4cc(C(C)(C)O)ccc4Oc4c(C)cc(F)cc4C)cn(C)c(=O)c3s2)o1 [Compound 13, 4-(2-(4-fluoro-2,6-dimethylphenoxy)-5-(2-hydroxypropan-2-yl)phenyl)-6-methyl-2-(5-methyl-1,3,4-oxadiazol-2-yl)thieno[2,3-c]pyridin-7(6H)-one] | 4940 | 0.54 | – | 2.5 | 9 |
| Cn1cc(-c2cc(C(C)(C)O)ccc2Oc2ccc(F)cc2F)c2cc(C(=O)N3CCCC(F)(F)C3)sc2c1=O [Compound 23, 4-(2-(2,4-difluorophenoxy)-5-(2-hydroxypropan-2-yl)phenyl)-2-(3,3-difluoropiperidine-1-carbonyl)-6-methylthieno[2,3-c]pyridin-7(6H)-one] | 1120 | 0.768 | – | 1.62 | 18 |
| Cn1cc(-c2cc(C(C)(C)O)ccc2Oc2ccc(F)cc2F)c2cc(C(=O)NC3CC3)sc2c1=O [Compound 145, N-cyclopropyl-4-(2-(2,4-difluorophenoxy)-5-(2-hydroxypropan-2-yl)phenyl)-6-methyl-7-oxo-6,7-dihydrothieno[2,3-c]pyridine-2-carboxamide] | 601 | 0.245 | – | 0.691 | 7 |
| CCNC(=O)c1cc2c(=O)n(C)cc(-c3cc(C(C)(C)O)ccc3Oc3c(C)cc(F)cc3C)c2s1 [Compound 146, N-ethyl-7-(2-(4-fluoro-2,6-dimethylphenoxy)-5-(2-hydroxypropan-2-yl)phenyl)-5-methyl-4-oxo-4,5-dihydrothieno[3,2-c]pyridine-2-carboxamide] | 2920 | 0.084 | – | 0.729 | 2 |
| CCNC(=O)c1cc2c(-c3cc(NS(=O)(=O)CC)ccc3Oc3c(C)cccc3C)cn(C)c(=O)c2s1 [Compound 147, 4-(2-(2,6-dimethylphenoxy)-5-(ethylsulfonamido)phenyl)-N-ethyl-6-methyl-7-oxo-6,7-dihydrothieno[2,3-c]pyridine-2-carboxamide] | 299 | 0.047 | – | 1.77 | 1.8 |
| CCS(=O)(=O)Nc1ccc(Oc2ccc(F)cc2F)c(-c2cn(C)c(=O)c3sc(-c4nc5ccccc5o4)cc23)c1 [Compound 158, N-(3-(2-(benzo[d]oxazol-2-yl)-6-methyl-7-oxo-6,7-dihydrothieno[2,3-c]pyridin-4-yl)-4-(2,4-difluorophenoxy)phenyl)ethanesulfonamide] | 103 | 0.56 | – | – | 196 |
